# In article PMC11001709, “Anti-toxoplasma activity and DNA-binding of copper(II) and zinc(II) coordination compounds with 5-nitroimidazole-based ligands” (Journal of Biological Inorganic Chemistry, 2023):
# Where two headings read alike, the source gives them in different places.
# Assays:
# [1] = test system: young adult male ICR mice; test: Acute toxicity (LD50), intraperitoneal; format: in vivo, mouse; conditions: single dose
# Method: For the acute toxicity assays, young adult male ICR mice with an average weight of 28 g and a variation of no more than ± 3 g were used. The handling of the animals was carried out in accordance with the committee for the care and use of laboratory animals (CICUAL) from the Faculty of Chemistry, UNAM.
# A stock solution with a concentration of 25 mg mL^−1 of [Cu(onz)2Cl2] and [Cu(onz)2Br2] was prepared with water for injection. In the case of [Cu(onz)2Br2], 0.1% of DMSO was added. For the pharmacological profile three mice were used for each dose of 1, 10 and 100 mg kg^−1 per compound. For the acute toxicity assays five mice were treated for each dose (10, 50, 75 and 100 mg kg^−1) per compound. […] A detailed clinical observation was made 24 h after administration. The doses were administered intraperitoneally. The data obtained were used to calculate the mean lethal dose using the software Prism 13.0 and SPSS 29.0 [37, 38].
# Based on the anti-toxoplasma results the medial lethal dose (LD50) for [Cu(onz)2Cl2] and [Cu(onz)2Br2] were determined intraperitoneally using doses of 10, 50, 75 and 100 mg kg^−1 per compound in young adult male ICR mice.
# [2] = test system: RH tachyzoites of Toxoplasma gondii; test: Viability of extracellular tachyzoites, Sytox Green exclusion test; format: cell-based
# Method: RH tachyzoites of Toxoplasma gondii were extracted in PBS solution at pH 7.4 from intraperitoneal fluid of infected CD1 mice on the third day of infection and centrifuged for ten minutes at 260g. Purified parasites were used within 4 h after their isolation.
# The viability of the parasites was determined from staining with Sytox Green® fluorescent dye exclusion test. Purified tachyzoites (1 × 10^6) were incubated for one hour at room temperature with PBS solutions of the coordination compounds or the free ligands at concentrations of 40, 20, 10, 5, and 2.5 µM (0.1% DMSO), in a volume final of 1 mL. After the incubation time, the samples were centrifuged for 10 min at 250g, the medium was removed and 20 µL of Sytox Green® was added after 15 min of incubation for differentiate dead parasites in a Neubauer chamber. The assays were performed in triplicate. The half maximal inhibitory concentration (IC50) was calculated by Boltzmann regression analysis and expressed as mean ± standard error of three replicates. Based on the results the tachyzoites were incubated under the same conditions with the coordination compounds [Cu(onz)2Cl2] and [Cu(onz)2Br2] at their respective IC50 values, Sytox Green® was then added, and they were observed by fluorescence microscopy. Sulfadiazine was used as positive control.
# Viability assays were performed against tachyzoites of Toxoplasma gondii. The RH strain was used to evaluate the effect of different concentrations (namely, 2.5, 5, 10, 20 and 40 µM) of the coordination compounds and the free 5-nitroimidazole against the tachyzoites. The evaluation were performed in PBS buffer (pH 7.4) with Sytox Green® exclusion test, which allows differentiating dead from live tachyzoites, since the intact cell membrane of alive ones is not stained.
# ct-DNA [3] = test: Competitive displacement of Hoechst 33258 from DNA (fluorescence); format: binding, calf; conditions: Hoechst 33258 1.9 µM, [DNA]b = 30 µM, compound 0-50 µM, 1 h
# Method: (§1) For the UV–Vis, fluorescence and circular dichroism assays the concentration of ct-DNA was determined on a Varian Cary 100 Scan spectrophotometer from the absorption at 260 nm and the corresponding molar absorptivity of 6600 M^−1 cm^−1 (nucleobase concentration). The stock solutions of the coordination compounds and the free ligands were prepared in cacodylate/NaCl buffer (1 mM cacodylic acid and 20 mM sodium chloride) at pH 7.25. The final samples contained a DMSO concentration of 0.2%.
# (§2) Emission intensity of the dyes DNA-intercalator ethidium bromide, EB (λexc = 514 nm) and the minor-groove binder Hoechst 33,258 (λexc = 350 nm) was measured on iHR320 HORIBA JOBIN YVON spectrofluorometer. The samples contained 15 µM (in base pairs) of ct-DNA and 75 µM of EB […] in cacodylate/NaCl buffer. The respective dye was incubated for 30 min with ct-DNA to allow its binding to the biomolecule. Subsequently, increasing amounts of coordination compounds (0–50 µM) were added up to a final volume of 2 mL, and the samples were incubated for 1 h at 37 °C. The fluorescence spectra of all samples were recorded at room temperature. The affinity of the compounds for ct-DNA compared to EB was evaluated through the Stern–Volmer quenching constant Ksv, from Eq. 3:3 I0/I=1+Ksvcompound where I0 and I are the emission intensities in absence and the presence of the compound, respectively.
# Competitive binding assays were carried out with Hoechst 33,258. This dye binds to B-DNA, especially those with an AT-rich sequence giving a fluorescent signal at 458 nm when excited at 350 nm. As for to the EB assays, DNA (30 µM) was incubated for 30 min with Hoechst 33,258 (1.9 µM) and increasing amounts of the coordination compounds were subsequently added. In all cases, fluorescence quenching was observed (Fig. 9). As previously, the Ksv constants were determined (Fig. 9c and Table 4). The copper(II) compounds show Ksv values in the […] range (Table 4), indicating a groove binding behavior. For the zinc(II) compounds, the Ksv values are two orders of magnitude lower indicating weaker interactions, must likely of electrostatic nature.
# ct-DNA [4] = test: Competitive displacement of ethidium bromide from DNA (fluorescence); format: binding, calf; conditions: EB 75 µM, [DNA]b = 30 µM, compound 0-50 µM, 1 h
# Method: as §1, §2
# With the aim to corroborate the binding mode of the coordination compounds with DNA competitive displacement assays were carried out by florescence spectroscopy. The fluorescence of ethidium bromide (EB) increases when it intercalates between DNA base pairs, forming an EB-DNA adduct. Competitive binding assays will lead to a decrease of the fluorescence intensity (λexc = 514 nm; λem = 610 nm) if the interacting molecule is capable of displacing EB from the DNA helix. Solutions containing constant concentrations of DNA (30 µM) and EB (75 µM) were incubated for 30 min. Then the coordination compounds to be tested were added in a concentration in the range of 0–50 µM (corresponding to [complex]/[DNA] ratios between = 0 and 3.3), and fluorescence spectra were recorded after 1 h of incubation.
# [5] = test system: mouse fibroblast L929 cells; test: Cytotoxic activity in healthy host cells; format: cell-based
# Method: The IC50 values obtained for [Cu(onz)2Cl2] (210.2 μM) and [Cu(onz)2Br2]
# Entamoeba histolytica = conditions: cited from earlier work
# [6] = 1 h, PBS pH 7.4, mean ± standard error of three replicates, read-out: IC50
# [7] = viability vs concentration, read-out: IC50 (Boltzman Fit, Fig. S6)
SMILES,LD50 [1] [mg/kg],"IC50 [2, 6] [µM]","IC50 [2, 7] [µM]",Hoechst 33258 Ksv (ct-DNA [3]) [M⁻¹],Ethidium bromide Ksv (ct-DNA [4]) [M⁻¹],IC50 [5] [µM],MIC (Entamoeba histolytica) [µM]
Cc1n(CC(O)CCl)c([N+](=O)[O-])c[n+]1[Cu-2]([Br])([Br])[n+]1cc([N+](=O)[O-])n(CC(O)CCl)c1C (stereo not drawn) [[Cu(onz)2Br2]],83.24,2.73 ± 0.34,2.73,2.5e+06,43000,180,
Cc1ncc([N+](=O)[O-])n1CCCl.Cc1ncc([N+](=O)[O-])n1CCCl.[Br][Zn][Br] [[Zn(cenz)2Br2]],,40 ± 0.96,40,120000,1100,,
Cc1ncc([N+](=O)[O-])n1CC(O)CCl.Cc1ncc([N+](=O)[O-])n1CC(O)CCl.[Cl-].[Cl-].[Cu+2] (stereo not drawn) [[Cu(onz)2Cl2]],49.35,8.49 ± 0.64,8.49,1.2e+06,26000,210,
Cc1ncc([N+](=O)[O-])n1CCCl.Cc1ncc([N+](=O)[O-])n1CCCl.[Br][Cu][Br] [[Cu(cenz)2Br2]],,,,2.1e+06,35000,,
Cc1ncc([N+](=O)[O-])n1CC(O)CCl.Cc1ncc([N+](=O)[O-])n1CC(O)CCl.[Cl][Zn][Cl] (stereo not drawn) [[Zn(onz)2Cl2]],,,,38000,4500,,6.25
Cc1ncc([N+](=O)[O-])n1CCCl.Cc1ncc([N+](=O)[O-])n1CCCl.[Cl][Cu][Cl] [[Cu(cenz)2Cl2]],,30.55 ± 0.25,30.6,1.6e+06,,,
